Four compounds from article PMC3878488, “Biarsenical ligands bind to endogenous G-protein α-subunits and enable allosteric sensing of nucleotide binding” (BMC Biochemistry, 2013) can be followed below.

What all share (experiment): F2FlAsH fluorescence anisotropy, nucleotide titration
Holding throughout (type): binding
(In fluorescence polarisation assays a small probe gives low polarisation when free and higher when bound to something large.)

One assay relates to T1, αi2βγM (F2FlAsH-labeled).
T1 construct: gene GNAI2; wild-type alpha co-expressed in Sf9 with beta1 / StrepII- and CCKACC-tagged gamma2; nucleotide-depleted heterotrimer
Particulars: pH 7.8, 28°C, 2 mM MgCl2, 1 mM EDTA, 2 h; 5 nM F2FlAsH allosteric label, ~40 nM nucleotide-depleted heterotrimer. The source says: F2FlAsH fluorescence anisotropy, nucleotide titration on αi2βγM (F2FlAsH-labeled)

For the next assay, the system named is T2, αi3βγM (F2FlAsH-labeled).
T2 construct: gene GNAI3; wild-type alpha co-expressed in Sf9 with beta1 / StrepII- and CCKACC-tagged gamma2; nucleotide-depleted heterotrimer
To be noted: pH 7.8, 28°C, 2 mM MgCl2, 1 mM EDTA, 2 h; 5 nM F2FlAsH allosteric label, ~40 nM nucleotide-depleted heterotrimer. The text has this: F2FlAsH fluorescence anisotropy, nucleotide titration on αi3βγM (F2FlAsH-labeled)

The test system of assay [1] is T3, αolf + βγM (F2FlAsH-labeled).
T3 construct: gene GNAL; wild-type alpha (Kerafast, purified by GST-Ric8 association), reconstituted with beta1 / StrepII- and CCKACC-tagged gamma2 from Sf9
Particulars: pH 7.8, 28°C, 2 mM MgCl2, 1 mM EDTA, 6 h; 15 nM F2FlAsH allosteric label. The text has this:
F2FlAsH fluorescence anisotropy, nucleotide titration on αolf + βγM (F2FlAsH-labeled)

In another assay the test system is T4, αi1βγM (F2FlAsH-labeled).
T4 construct: gene GNAI1; wild-type alpha co-expressed in Sf9 with beta1 / StrepII- and CCKACC-tagged gamma2; nucleotide-depleted heterotrimer
Particulars: pH 7.8, 28°C, 2 mM MgCl2, 1 mM EDTA, 2 h; 5 nM F2FlAsH allosteric label, ~40 nM nucleotide-depleted heterotrimer. The source says: F2FlAsH fluorescence anisotropy, nucleotide titration on αi1βγM (F2FlAsH-labeled)

The test system of assay [2] is T5, αsshort + βγM (F2FlAsH-labeled).
T5 construct: gene GNAS; wild-type alpha (Kerafast, purified by GST-Ric8 association), reconstituted with beta1 / StrepII- and CCKACC-tagged gamma2 from Sf9
Particulars: pH 7.8, 28°C, 2 mM MgCl2, 1 mM EDTA, 6 h; 15 nM F2FlAsH allosteric label. The source says:
F2FlAsH fluorescence anisotropy, nucleotide titration on αsshort + βγM (F2FlAsH-labeled)

Assay [3] has as its system T6, α13 + βγM (F2FlAsH-labeled).
T6 construct: gene GNA13; wild-type alpha (Kerafast, purified by GST-Ric8 association), reconstituted with beta1 / StrepII- and CCKACC-tagged gamma2 from Sf9
To be noted: pH 7.8, 28°C, 2 mM MgCl2, 1 mM EDTA, 14 h; 15 nM F2FlAsH allosteric label. The text has this: F2FlAsH fluorescence anisotropy, nucleotide titration on α13 + βγM (F2FlAsH-labeled)

The subject of assay [4] is T7, αq + βγM (F2FlAsH-labeled).
T7 construct: gene GNAQ; wild-type alpha (Kerafast, purified by GST-Ric8 association), reconstituted with beta1 / StrepII- and CCKACC-tagged gamma2 from Sf9
Particulars: pH 7.8, 28°C, 2 mM MgCl2, 1 mM EDTA, 6 h; 15 nM F2FlAsH allosteric label. The text has this:
F2FlAsH fluorescence anisotropy, nucleotide titration on αq + βγM (F2FlAsH-labeled)

Assay [5] concerns T8, αslong + βγM (F2FlAsH-labeled).
T8 construct: gene GNAS; wild-type alpha (Kerafast, purified by GST-Ric8 association), reconstituted with beta1 / StrepII- and CCKACC-tagged gamma2 from Sf9
Particulars: pH 7.8, 28°C, 2 mM MgCl2, 1 mM EDTA, 6 h; 15 nM F2FlAsH allosteric label. The text has this: F2FlAsH fluorescence anisotropy, nucleotide titration on αslong + βγM (F2FlAsH-labeled)

Consider `Nc1nc2c(ncn2[C@@H]2O[C@H](COP(=O)(O)OP(=O)(O)O)[C@@H](O)[C@H]2O)c(=O)[nH]1` [GDP], for which the GDP is given as 8.17 ± 0.13 -log M in the assay with αi2βγM (F2FlAsH-labeled); 8.08 ± 0.10 -log M in the assay with αi3βγM (F2FlAsH-labeled); 5.00 ± 0.03 -log M in assay [1]; 8.19 ± 0.16 -log M with αi1βγM (F2FlAsH-labeled); 4.85 ± 0.05 -log M in assay [2]; 4.98 ± 0.23 -log M in assay [3]. Besides, the figures for the GDP in assay [4] and in assay [5] were 5.87 ± 0.06 -log M and 4.72 ± 0.18 -log M, respectively.

In the case of `Nc1nc2c(ncn2[C@@H]2O[C@H](COP(=O)(O)O)[C@@H](O)[C@H]2O)c(=O)[nH]1` [GMP], the GMP in the assay on αi2βγM (F2FlAsH-labeled) is recorded as 4.45 ± 0.07 -log M; in the assay on αi3βγM (F2FlAsH-labeled), 5.29 ± 0.13 -log M; in assay [1] it was < 3 -log M; in the assay on αi1βγM (F2FlAsH-labeled), 5.89 ± 0.12 -log M; in assay [2], < 3 -log M; in assay [4], < 3 -log M.

As to `Nc1nc2c(ncn2[C@@H]2O[C@H](COP(=O)(O)OP(=O)(O)OP(O)(O)=S)[C@@H](O)[C@H]2O)c(=O)[nH]1` [GTPγS], the GTPγS in the assay with αi2βγM (F2FlAsH-labeled) was 8.02 ± 0.09 -log M; in the assay with αi3βγM (F2FlAsH-labeled), 7.87 ± 0.06 -log M; in assay [1], 6.43 ± 0.04 -log M; in assay [2] it was 7.06 ± 0.04 -log M; in assay [3], 5.65 ± 0.13 -log M; in assay [4], 6.27 ± 0.05 -log M. For the same compound, in assay [5], the GTPγS is given as 7.47 ± 0.09 -log M.

Regarding `Nc1nc2c(ncn2[C@@H]2O[C@H](COP(=O)(O)OP(=O)(O)NP(=O)(O)O)[C@@H](O)[C@H]2O)c(=O)[nH]1` [GppNHp], the GppNHp is on record as 7.84 ± 0.14 -log M in the assay with αi2βγM (F2FlAsH-labeled); 7.93 ± 0.07 -log M with αi3βγM (F2FlAsH-labeled); 5.84 ± 0.05 -log M in assay [1]; 8.08 ± 0.04 -log M with αi1βγM (F2FlAsH-labeled); 6.42 ± 0.04 -log M in assay [2]; 5.36 ± 0.14 -log M in assay [3]. Also, the GppNHp is given as 5.96 ± 0.07 -log M in assay [4] and 6.56 ± 0.07 -log M in assay [5].
